The subject of the experiment is CT26 cells. The experiment is described as follows: Inhibition of CT26 cell proliferation (CellTiter-Glo). The experiment is classed as cell-based, mouse. How it is done: CT26 cells are a mouse colorectal cancer cell line. In this experiment, CellTiter-Glo Luminescence Cell Viability Assay kit from Promega was used to assess the inhibitory activity of the compounds on CT26 cell proliferation.
When CT26 cells (ATCC #CRL-2638) were revived, the cryovial was rapid shaken in a 37°C water bath to thaw with 1 min. The thawed cell suspension was mixed well with DMEM medium (GE Company, Cat. No. #SH30243.01) containing 10% FBS (GIBCO, Cat. No. #10099-141), centrifuged at 1000 rpm for 5 min, and the supernatant was discarded. The cell pellet was resuspended in 5 mL of complete medium (DMEM medium containing 10% FBS), placed in a cell culture flask with a bottom area of 25 cm^2, and cultured in a cell incubator at 37°C, 5% CO2, and 95% humidity. Passage was performed when the confluence rate of cells reached 70%~80%. Referring to the cell passage method at plating, all cells in the flask were transferred to a 15 mL centrifuge tube, centrifuged at 1000 rpm for 5 minutes, and the supernatant was discarded. The cell pellet was resuspended in 5 mL of new complete medium, 1 mL was placed in a cell culture flask with a bottom area of 25 cm^2, and 4 mL of fresh complete medium was added to continue the culture. Plating was performed when the cell confluence rate of cells reached 70% to 80% again. Referring to the cell passage method at plating, 1/5 of the cell suspension was maintained and the remaining 4/5 of the cell suspension was placed in a 15 mL centrifuge tube. The cells were centrifuged, the old medium was discarded, the cells was washed once with DMEM medium (without serum), and centrifuged to remove the supernatant. Cells were resuspended with DMEM medium (without serum). […]. A cell suspension at a density of 1.1 x 10^4 viable cells/mL was prepared using DMEM medium (without serum) and 90 µL of the cell suspension was added to 96-well clear flat-bottom black-walled cell culture plate wells (Corning, Cat. No. #3603) to yield a cell density of 1000 viable cells/well in the plate. A control group without cells, without compounds, and with complete medium only (i.e., culture medium control) was set up, and a control group without compounds and with cells (i.e., cell control) was set up. The plates were incubated overnight in a cell incubator.
A DMSO stock solution of 10 mM compound was first serially diluted at a 3.16-fold dilution ratio with DMSO (Sigma, Cat. No. #D2650) to a ninth concentration and a tenth concentration of DMSO control without compound was set. DMSO solutions containing different concentrations of the compound were then diluted a 10-fold dilution ratio with PBS (Solarbio company, Cat. No. #P1020) to achieve a DMSO content of 10% in each concentration of the compound solution. Finally, 10 µL of the above solution was added to the corresponding cell culture plate to achieve a starting concentration of 100 µM compound, a 3.16-fold dilution ratio of adjacent concentrations, and a DMSO content of 1% in the cell culture plate. The plates were maintained in a cell incubator for an additional 120 hours.
After 120 hours, the CellTiter-Glo reagent (Promega, Cat. No. #G7572) was thawed and the plate was equilibrated at room temperature for 30 min. Then, 100 µL CellTiter-Glo was added to each well of the plate and shaken on an orbital shaker for 5 min to fully lyse the cells. The plate was placed at room temperature for 20 min to stabilize the cold light signal, and the cold light value of each well was scanned with a multifunctional microplate reader (Molecular Devices, Spectramax M3) at full wavelength.
The compound of the present invention and ADU-S100 (MCE, Cat. No. #HY12885A) were used as controls: Clofarabine (Wuhu Huaren Technology, Cat. No. #HR-00701002), Cladribine (CSNpharm, Cat. No. #CSN10004), Gemcitabine Hydrochloride (Shaoyuan, Cat. No. #SY014538), Gemcitabine Prodrug LY2334737 (home-made). […]

Molecules are shown by their SMILES. Where a name gives a salt, the structure may show the parent alone.

As for `Nc1nc2c(ncn2[C@@H]2O[C@@H]3CO[P@@](=O)(S)O[C@H]4[C@H](F)[C@H](n5cnc6c(N)nc(Cl)nc65)O[C@@H]4CO[P@@](=O)(S)O[C@@H]2[C@@H]3O)c(=O)[nH]1` [CDN-3, (2',3')-cyclo-(Rp,Rp)-[2'-O-thiophosphodiester-guanosine]-[3'-O-thiophosphodiester-2-chloro-2'-deoxy-2'-fluoro-beta-adenosine]diammonium salt], the IC50 (Mus musculus, CT26, 120 h, read-out: CT-26 activity) is < 1000 nM. Also, the “inhibitory ability on growth of CT26 tumor cells in vitro (in words)” value (superior to ADU-S100) is “particularly significant inhibitory ability”.

For the origin of these results see EP4653017A1, “ANTIBODY-DRUG CONJUGATE AND USE THEREOF” (Tyligand Bioscience (Shanghai) Limited, priority 2023, dated 2024).
